Here are results for 42 compounds from patent US9695193B2, “Inhibitors of Plasmodium falciparum equilibrative nucleoside transporter type I as anti-parasitic compounds” (The Trustees of Columbia University in the City of New York, priority 2013, dated 2017).

For the test, the target named is T1, PfENT1 (Plasmodium falciparum, UniProt Q8IDM6).
T1 construct: expressed in transfected cells; host or cells: fui1Δ yeast (Saccharomyces cerevisiae), co-expressing GFP
T1 sequence (Q8IDM6 whole entry): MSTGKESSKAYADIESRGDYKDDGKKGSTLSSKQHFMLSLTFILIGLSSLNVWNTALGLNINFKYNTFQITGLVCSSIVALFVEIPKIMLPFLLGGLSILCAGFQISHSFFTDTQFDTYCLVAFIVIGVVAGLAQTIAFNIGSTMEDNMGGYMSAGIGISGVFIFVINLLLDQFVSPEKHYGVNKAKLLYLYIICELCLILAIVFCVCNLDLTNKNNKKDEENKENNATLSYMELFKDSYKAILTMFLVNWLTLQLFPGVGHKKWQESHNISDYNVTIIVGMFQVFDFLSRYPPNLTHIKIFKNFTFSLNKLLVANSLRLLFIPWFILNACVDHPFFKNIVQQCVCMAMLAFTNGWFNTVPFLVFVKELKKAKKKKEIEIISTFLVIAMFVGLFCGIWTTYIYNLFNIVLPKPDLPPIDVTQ
The test is classed as cell-based. Conditions: primary HTS, compounds at 10 μM, 125 μM 5-FUrd. Here is the method: A yeast-based high throughput screening (HTS) assay was used to identify compounds that inhibit PfENT1. The compounds described in this application were identified by screening four commercially available, chemical compound libraries obtained from Dr. Donald Landry's laboratory (Department of Medicine, Columbia University). These libraries contain approximately 80,000 unique chemical entities.
In the primary screen the compounds were tested at a concentration of 10 μM. Hits were identified by the growth of fui1Δ yeast expressing PfENT1 and Green Fluorescent Protein (GFP) in the presence of the cytotoxic nucleoside 5-fluorouridine (5-FUrd). 5-FUrd is transported by PfENT1. PfENT1 expressing fui1Δ yeast will only grow in the presence of 125 μM 5-FUrd if a PfENT1 inhibitor blocks the uptake of 5-FUrd into the yeast. Significant yeast growth in the HTS in 384 well plates was determined by two criteria: 1) turbidity as determined by the optical density at 620 nm (OD620) and 2) GFP fluorescence intensity. […] Hits had to be positive by both criteria.
As for `C[C@H]1CC[C@]2(NC1)O[C@H]1C[C@H]3[C@@H]4CC[C@H]5C[C@@H](O[C@@H]6O[C@H](CO)[C@H](O[C@@H]7O[C@H](CO)[C@@H](O)[C@H](O[C@@H]8OC[C@@H](O)[C@H](O)[C@H]8O)[C@H]7O[C@@H]7O[C@H](CO)[C@@H](O)[C@H](O)[C@H]7O)[C@H](O)[C@H]6O)CC[C@]5(C)[C@H]4CC[C@]3(C)[C@H]1[C@@H]2C` [compound 95], the “Avg Normalized % maximal activity” value amounted to 5.00%.
As for `O=C(Nc1cccc(-c2nc3ncccc3o2)c1)c1ccccc1F` [compound 96, 2-fluoro-N-(3-[1,3]oxazolo [4,5-b]pyridin-2-ylphenyl)benzamide], the “Avg Normalized % maximal activity” value stood at 4.92%.
The figure for `CNC(=O)c1nc(-c2ccc(Cl)cc2)no1` [compound 97, 3-(4-chlorophenyl)-N-methyl-1,2,4-oxadiazole-5-carboxamide] is 4.86%.
The value for `COC(=O)c1ccccc1NC(=O)c1ccc(NC(=O)C2CCCO2)cc1` (stereo not drawn) [compound 99, methyl 2-({4-[(tetrahydro-2-furanylcarbonyl)amino]benzoyl}amino)benzoate] was 4.83%; that for `O=C(Nc1cccnc1)c1cc2cc(C3CC3)cc(C(F)(F)F)n2n1` [compound 100] was 4.83%; that for `COc1cc(NC(=O)c2cccc(Br)c2)nc(OC)n1` [compound 101, 3-bromo-N-(2,6-dimethoxy-4-pyrimidinyl)benzamide] was 4.78%.
The value for `O=C1OC(CO)[C@@H](O)C(O)C1O` (stereo partly drawn) [compound 102] was 4.76%.
Regarding `O=C(Nc1cc(-c2nc3ccccc3[nH]2)ccc1Cl)c1ccco1` [compound 103, N-[5-(1H-benzimidazol-2-yl)-2-chlorophenyl]-2-furamide], the “Avg Normalized % maximal activity” value was found to be 4.74%.
The value for `Cc1cccc(N2C(=O)CC(NC3CCCC3)C2=O)c1` (stereo not drawn) [compound 104, 3-(cyclopentylamino)-1-(3-methylphenyl)-2,5-pyrrolidinedione] was 4.72%; that for `Cc1ccccc1C(=O)Nc1ccc(-c2nc3ncccc3o2)cc1` [compound 105, 2-methyl-N-(4-[1,3]oxazolo[4,5-b]pyridin-2-ylphenyl)benzamide] was 4.70%.
The value for `COc1ccc(NC(=O)C2Cc3ccccc3C(=O)O2)cc1` (stereo not drawn) [compound 106, N-(4-methoxyphenyl)-1-oxo-3,4-dihydro-1H-isochromene-3-carboxamide] was 4.69%.
As for `COc1ccc(N(CC(=O)Nc2ccc(Cl)cc2)S(C)(=O)=O)c(OC)c1` [compound 107, N~1~-(4-chlorophenyl)-N~2~-(2,4-dimethoxyphenyl)-N~2~-(methylsulfonyl)glycinamide], the “Avg Normalized % maximal activity” value amounted to 4.67%.
The figure for `CCc1nnc(NC(=O)c2sc3nc(C)cc(COC)c3c2N)s1` [compound 108, 3-amino-N-(5-ethyl-1,3,4-thiadiazol-2-yl)-4-(methoxymethyl)-6-methylthieno [2,3-b]pyridine-2-carboxamide] is 4.66%; for `CNC[C@H](O)[C@@H](O)[C@H](O)[C@H](O)CO` [compound 109] it is 4.65%.
The figure for `O=C(Nc1ccc(-c2nnc(-c3ccco3)o2)cc1)C1CCCCC1` [compound 110, N-{4-[5-(2-furyl)-1,3,4-oxadiazol-2-yl]phenyl} cyclohexane-carboxamide] is 4.61%.
The figure for `COCCNCCOc1ccc(C(C)(C)C)cc1C.O=C(O)C(=O)O` [compound 111, [2-(4-tert-butyl-2-methylphenoxy)ethyl](2-methoxyethyl)amine oxalate] is 4.58%; for `COC(=O)c1ccccc1NC(=O)c1cccc(NC(=O)c2cccs2)c1C` [compound 112, methyl 2-({2-methyl-3-[(2-thienylcarbonyl)amino]benzoyl}amino)benzoate] it is 4.55%; for `CCSc1nnc(NC(=O)c2cccc(OC)c2)s1` [compound 113, N-[5-(ethylthio)-1,3,4-thiadiazol-2-yl]-3-methoxybenzamide] it is 4.39%.
Consider `CCC(=O)Nc1cccc(-c2nnc(-c3ccccc3C)o2)c1` [compound 114, N-{3-[5-(2-methylphenyl)-1,3,4-oxadiazol-2-yl]phenyl} propanamide], for which the “Avg Normalized % maximal activity” value stood at 4.37%.
The value for `Cc1ccc(NC(=O)CSc2nccn2C)cc1C` [compound 115, N-(3,4-dimethylphenyl)-2-[(1-methyl-1H-imidazol-2-yl)thio]acetamide] was 4.36%; that for `O=C(Nc1cccc(NC(=O)c2cccs2)c1)c1cc2ccccc2o1` [compound 116, N-{3-[(2-thienylcarbonyl)amino]phenyl)-1-benzofuran-2-carboxamide] was 4.34%.
The figure for `COc1cc(NC(=O)CSc2nccc(C)n2)c(OC)cc1Cl` [compound 117, N-(4-chloro-2,5-dimethoxyphenyl)-2-[(4-methyl-2-pyrimidinyl)thio]acetamide] is 4.28%; for `Nc1nc(N)n(-c2ccccc2)n1` [compound 118, 1-phenyl-1H-1,2,4-triazole-3,5-diamine] it is 4.28%.
With `COCc1cc(C)nc2sc(C(=O)Nc3ccc(C(=O)OC)cc3)c(N)c12` [compound 119, methyl 4-({[3-amino-4-(methoxymethyl)-6-methylthieno[2,3-b]pyridin-2-yl]carbonyl}amino)benzoate], the “Avg Normalized % maximal activity” value came out at 4.25%.
The value for `CC(=O)[C@H]1CC[C@H]2[C@@H]3C[C@H](C)C4=CC(=O)CC[C@]4(C)[C@H]3[C@@H](O)C[C@]12C` [compound 121] was 4.13%.
In the case of `COc1c(C)cccc1C(=O)Nc1cc(-c2nc3ncccc3o2)ccc1C` [compound 122, 2-methoxy-3-methyl-N-(2-methyl-5-[1,3]oxazolo[4,5-b]pyridin-2-ylphenyl)benzamide], the “Avg Normalized % maximal activity” value came to 4.13%.
On to `CC(C)c1nnc(NC(=O)c2cccc(I)c2)s1` [compound 123, 3-iodo-N-(5-isopropyl-1,3,4-thiadiazol-2-yl)benzamide], for which the “Avg Normalized % maximal activity” value came out at 4.10%.
The value for `COc1ccc(OC)c(NC(=O)N2CCN(c3cc(Cl)ccc3C)CC2)c1` [compound 124, 4-(5-chloro-2-methylphenyl)-N-(2,5-dimethoxyphenyl)-1-piperazine-carboxamide] was 3.95%; that for `CCSc1nnc(NC(=O)c2cc(Br)ccc2Cl)s1` [compound 125, 5-bromo-2-chloro-N-[5-(ethylthio)-1,3,4-thiadiazol-2-yl]benzamide] was 3.89%; that for `COc1ccc(NC(=O)C2(c3ccccc3)CCCC2)cc1` [compound 126, N-(4-methoxyphenyl)-1-phenylcyclopentane-carboxamide] was 3.87%.
The figure for `COc1c(C)c2c(c(O)c1C/C=C(\C)CCC(=O)OCCN1CCOCC1)C(=O)OC2` [compound 127] is 3.85%.
The figure for `COc1ccc(/C=C/c2nc(C#N)c(N3CCCCC3)o2)cc1OC` [compound 128, 2-[2-(3,4-dimethoxyphenyl)vinyl]-5-(1-piperidinyl)-1,3-oxazole-4-carbonitrile] is 3.74%; for `CC(C)[C@@H]1CC[C@@H](C)CC1=O` [compound 129] it is 3.73%; for `O=C(C1CCCCC1)N1CCN(c2ccccn2)CC1` [compound 130, 1-(cyclohexylcarbonyl)-4-(2-pyridinyl)piperazine] it is 3.69%.
Take `CC[S+](CC)c1c([O-])[nH]c(=O)n(Cc2ccc(F)cc2)c1=O` [compound 131, 5-(diethylsulfonio)-1-(4-fluorobenzyl)-2,6-dioxo-1,2,3,6-tetrahydro-4-pyrimidinolate]: the “Avg Normalized % maximal activity” value worked out at 3.65%.
The figure for `O=C(Nc1ccc(-c2nnc(-c3ccccc3)o2)cc1)c1ccccc1Cl` [compound 132] is 3.60%.
The value for `COc1ccc(C2CC(c3ccccc3C)n3nc(N)nc3N2)cc1` (stereo not drawn) [compound 133, 5-(4-methoxyphenyl)-7-(2-methylphenyl)-4,5,6,7-tetrahydro[1,2,4] triazolo[1,5-a]pyrimidin-2-amine] was 3.57%.
The figure for `Cc1cc(=O)oc2cc(OCc3ccc4c(c3)OCO4)ccc12` [compound 134, 7-(1,3-benzodioxol-5-ylmethoxy)-4-methyl-2H-chromen-2-one] is 3.56%; for `C[N+]1(C)C2CC(OC(=O)[C@H](CO)c3ccccc3)CC1C1OC12` (stereo partly drawn) [compound 135] it is 3.47%; for `Cc1ccc2n1CCN(C(=O)c1ccc(S(=O)(=O)N(C)C)cc1)C2C` (stereo not drawn) [compound 136] it is 3.43%.
As for `O=C(Nc1cccc(NC(=O)c2cccs2)c1)c1ccc(Br)o1` [compound 137, 5-bromo-N-{3-[(2-thienylcarbonyl)amino]phenyl}-2-furamide], the “Avg Normalized % maximal activity” value stood at 3.37%.
The value for `COc1cc(C(=O)Nc2ccc(C(=O)c3cccs3)cc2)cc(OC)c1OC` [compound 138, 3,4,5-trimethoxy-N-[4-(2-thienylcarbonyl)phenyl]benzamide] was 3.31%.
